Each structure is given as a SMILES string. ≈ marks a conversion by molar mass, not a printed value.

Common to all, as to assay type: functional
The test system of test [1] is Haemophilus influenzae. Description: Antibacterial activity against Haemophilus influenzae 49247.
In test [2] the test system is Haemophilus influenzae. Nature of the test: Antibacterial activity against Haemophilus influenzae 33929.
The subject of test [3] is Staphylococcus aureus. Description: Antibacterial activity against Staphylococcus aureus ATCC 25923.
Test [4] deals with Streptococcus pyogenes. Nature of the test: Antibacterial activity against Streptococcus pyogenes R2.
The test system of test [5] is Streptococcus pneumoniae. Description: Antibacterial activity against Streptococcus pneumoniae ATCC 49619.
Test [6] concerns Streptococcus pneumoniae. Nature of the test: Antibacterial activity against Streptococcus pneumoniae AB11.
Test [7] deals with Staphylococcus aureus. Nature of the test: Antibacterial activity against Staphylococcus aureus.
Test [8] has as its system Streptococcus pyogenes. Description: Antibacterial activity against Streptococcus pyogenes S2.
Test [9] relates to Streptococcus pneumoniae. Description: Antibacterial activity against Streptococcus pneumoniae B1.
Test [10] deals with Streptococcus pneumoniae. Nature of the test: Antibacterial activity against Streptococcus pneumoniae A22072.
A further test has as its system Enterococcus faecalis. Description: Antibacterial activity against Enterococcus faecalis by broth microdilution method.
For test [11], the system named is Haemophilus influenzae. Description: Antibacterial activity against Haemophilus influenzae by broth microdilution method.
The test system of test [12] is Staphylococcus epidermidis. Description: Antibacterial activity against methicillin susceptible Staphylococcus epidermidis by broth microdilution method. (In general: In broth dilution the organism is exposed to a series of concentrations in liquid medium.)
In test [13] the test system is Staphylococcus epidermidis. Nature of the test: Antibacterial activity against methicillin resistant Staphylococcus epidermidis by broth microdilution method.
Test [14] relates to Staphylococcus aureus. Nature of the test: Antibacterial activity against methicillin/erythromycin susceptible Staphylococcus aureus by broth microdilution method.
Test [15] concerns Streptococcus pneumoniae. Nature of the test: Antibacterial activity against Streptococcus pneumoniae by broth microdilution method.
The test system of test [16] is Staphylococcus haemolyticus. Nature of the test: Antibacterial activity against Staphylococcus haemolyticus by broth microdilution method.
For test [17], the system named is Staphylococcus aureus. Nature of the test: Antibacterial activity against methicillin susceptible and erythromycin resistant Staphylococcus aureus by broth microdilution method.
Test [18] concerns Staphylococcus aureus. Description: Antibacterial activity against methicillin resistant Staphylococcus aureus by broth microdilution method.
Test [19] deals with Staphylococcus epidermidis. Description: Antibacterial activity against Staphylococcus epidermidis 11C176 by broth microdilution method.
Test [20] has as its system Staphylococcus epidermidis. Nature of the test: Antibacterial activity against Staphylococcus epidermidis 11X315 by broth microdilution method.
Test [21] deals with Haemophilus influenzae. Nature of the test: Antibacterial activity against Haemophilus influenzae 11Q373 by broth microdilution method.
The subject of another test is Moraxella catarrhalis. Nature of the test: Antibacterial activity against Moraxella catarrhalis by broth microdilution method.
Test [22] concerns Haemophilus influenzae. Nature of the test: Antibacterial activity against Haemophilus influenzae ATCC 49247 by broth microdilution method.
In test [23] the test system is Staphylococcus aureus. Nature of the test: Antibacterial activity against Staphylococcus aureus ATCC 29213 by broth microdilution method.
Test [24] relates to Streptococcus pneumoniae. Nature of the test: Antibacterial activity against Streptococcus pneumoniae 11J011 by broth microdilution method.
The test system of test [25] is Staphylococcus aureus. Nature of the test: Antibacterial activity against Staphylococcus aureus 11B117 by broth microdilution method.
Test [26] deals with Streptococcus pneumoniae. Description: Antibacterial activity against Streptococcus pneumoniae ATCC 49619 by broth microdilution method.
Test [27] concerns Staphylococcus aureus. Description: Antibacterial activity against methicillin resistant Staphylococcus aureus 7662.
Test [28] deals with Staphylococcus aureus. Nature of the test: Antibacterial activity against methicillin resistant Staphylococcus aureus 33591.

For `CC[C@H]1OC(=O)[C@H](C)C(=O)[C@H](C)[C@@H](O[C@@H]2O[C@H](C)C[C@H](N(C)C)[C@H]2O)[C@@]2(C)C[C@@H](C)C(=O)[C@H](C)[C@@H](OC/C(=N\OCc3ccc(-c4nc(N)cs4)cn3)CO2)[C@]1(C)O`, the MIC amounted to 1 µg/mL (≈ 1.2 µM) against Haemophilus influenzae [1] and 2 µg/mL (≈ 2.4 µM) against Haemophilus influenzae [2].
As to `CC[C@H]1OC(=O)[C@H](C)[C@@H](O[C@H]2C[C@@](C)(OC)[C@@H](OC(=O)NCc3cccc(Cl)c3)[C@H](C)O2)[C@H](C)[C@@H](OC2O[C@H](C)C[C@H](N(C)C)[C@H]2O)[C@]2(C)C[C@@H](C)/C(=N\[C@H](C)[C@H]3OC(=O)O[C@@]31C)O2` (stereo partly specified), the MIC worked out at 8 µg/mL (≈ 8.65 µM) in the test with Staphylococcus aureus [3]; 64 µg/mL (≈ 69.2 µM) against Streptococcus pyogenes [4]; 0.03 µg/mL (≈ 0.0324 µM) in the test with Streptococcus pneumoniae [5]; 16 µg/mL (≈ 17.3 µM) in the test on Streptococcus pneumoniae [6]; 32 µg/mL (≈ 34.6 µM) against Staphylococcus aureus [7]; 1 µg/mL (≈ 1.08 µM) in the test with Streptococcus pyogenes [8]. Besides, the MIC was determined as 16 µg/mL (≈ 17.3 µM) against Streptococcus pneumoniae [9] and 4 µg/mL (≈ 4.33 µM) against Streptococcus pneumoniae [10].
`CC[C@H]1OC(=O)[C@H](C)C(=O)[C@H](C)[C@@H](O[C@@H]2O[C@H](C)C[C@H](N(C)C)[C@H]2O)[C@](C)(OC)C[C@@H](C)C(=O)[C@H](C)[C@H]2N(CCCOC(=O)Nc3cccc(C)c3)C(=O)O[C@]12C`: the MIC50 with Enterococcus faecalis is over 256 µg/mL; in the test on Haemophilus influenzae [11], 4 to 8 µg/mL (≈ 4.98 to 9.95 µM); in test [12], 0.031 µg/mL (≈ 0.0386 µM); in test [13], 1 to 128 µg/mL (≈ 1.24 to 159 µM); against Staphylococcus aureus [14], 0.125 µg/mL (≈ 0.155 µM); in the test on Streptococcus pneumoniae [15] it was 0.062 to 0.125 µg/mL (≈ 0.0771 to 0.155 µM). For the same molecule, the MIC50 in [16] is 1 to 2 µg/mL (≈ 1.24 to 2.49 µM); in the test on Staphylococcus aureus [17], 0.25 µg/mL (≈ 0.311 µM); against Staphylococcus aureus [18] it was 128 to 256 µg/mL (≈ 159 to 318 µM).
`CC[C@H]1OC(=O)[C@H](C)C(=O)[C@H](C)[C@@H](O[C@@H]2O[C@H](C)C[C@H](N(C)C)[C@H]2O)[C@](C)(OC)C[C@@H](C)C(=O)[C@H](C)[C@H]2N(CCCN(c3cnc4ccccc4c3)S(=O)(=O)c3ccc(C)cc3)C(=O)O[C@]12C`: the MIC50 is 1 µg/mL (≈ 1.05 µM) in test [19]; 1 µg/mL (≈ 1.05 µM) in test [20]; 16 µg/mL (≈ 16.8 µM) against Haemophilus influenzae [21]; 2 µg/mL (≈ 2.1 µM) in the test on Moraxella catarrhalis; 32 µg/mL (≈ 33.6 µM) against Haemophilus influenzae [22]; 2 µg/mL (≈ 2.1 µM) in the test with Staphylococcus aureus [23]. The MIC50 was 2 µg/mL (≈ 2.1 µM) in the test on Streptococcus pneumoniae [24], over 64 µg/mL in the test on Staphylococcus aureus [25] and 0.25 µg/mL (≈ 0.263 µM) in the test with Streptococcus pneumoniae [26].
For `CC[C@H]1OC(=O)[C@H](C)C(=O)[C@H](C)[C@@H](O[C@@H]2O[C@H](C)C[C@H](N(C)C)[C@H]2O)[C@](C)(OC)C[C@@H](C)C(=O)[C@H](C)[C@H]2N(CCCN(Cc3ccccc3)c3cnc4ccccc4c3)C(=O)O[C@]12C`, the MIC50 in test [19] was found to be 0.25 µg/mL (≈ 0.282 µM); in [20], 0.25 µg/mL (≈ 0.282 µM); in the test with Haemophilus influenzae [21], 2 µg/mL (≈ 2.25 µM); against Moraxella catarrhalis, 0.25 µg/mL (≈ 0.282 µM); in the test with Haemophilus influenzae [22], 2 µg/mL (≈ 2.25 µM); in the test with Staphylococcus aureus [23] it was 0.25 µg/mL (≈ 0.282 µM). The results for the MIC50 against Streptococcus pneumoniae [24], in the test with Staphylococcus aureus [25] and against Streptococcus pneumoniae [26] were 2 µg/mL (≈ 2.25 µM), over 64 µg/mL and 0.031 µg/mL (≈ 0.0349 µM), respectively.
Take `CCC(=O)/N=C1\[C@H](C)C[C@@]2(C)OC/C(=N/OCc3csc(-c4cccc(N)n4)n3)CO[C@H]([C@H]1C)[C@](C)(O)[C@@H](CC)OC(=O)[C@@](C)(F)C(=O)[C@H](C)[C@H]2O[C@@H]1O[C@H](C)C[C@H](N(C)C)[C@H]1O`: the MIC in the test with Haemophilus influenzae [1] amounted to 1 µg/mL (≈ 1.1 µM); against Staphylococcus aureus [27] it was 1 µg/mL (≈ 1.1 µM); with Haemophilus influenzae [2], 4 µg/mL (≈ 4.42 µM); in the test on Staphylococcus aureus [28] it was 2 µg/mL (≈ 2.21 µM).
